Measured values taken from PubChem BioAssay (NCI).
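Five concentrations, 48 hours, 96-well plates. At the TGI there is no net growth.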

Tests used:
Test in all cases: NCI tumour cell line growth inhibition, 48 h
HCC-2998 colon = test system: HCC-2998 colon
KM12 colon = test system: KM12 colon
OVCAR-3 ovarian = test system: OVCAR-3 ovarian
SW-620 colon = test system: SW-620 colon
K-562 leukemia = test system: K-562 leukemia
SK-MEL-28 melanoma = test system: SK-MEL-28 melanoma
OVCAR-4 ovarian = test system: OVCAR-4 ovarian
UACC-62 melanoma = test system: UACC-62 melanoma
SNB-75 CNS = test system: SNB-75 CNS
CCRF-CEM leukemia = test system: CCRF-CEM leukemia
SK-OV-3 ovarian = test system: SK-OV-3 ovarian
DU-145 prostate = test system: DU-145 prostate
MOLT-4 leukemia = test system: MOLT-4 leukemia

Row | SMILES | TGI (HCC-2998 colon) [µM] | TGI (KM12 colon) [µM] | TGI (OVCAR-3 ovarian) [µM] | TGI (SW-620 colon) [µM] | TGI (K-562 leukemia) [µM] | TGI (SK-MEL-28 melanoma) [µM] | TGI (OVCAR-4 ovarian) [µM] | TGI (UACC-62 melanoma) [µM] | TGI (SNB-75 CNS) [µM] | TGI (CCRF-CEM leukemia) [µM] | TGI (SK-OV-3 ovarian) [µM] | TGI (DU-145 prostate) [µM] | TGI (MOLT-4 leukemia) [µM]
1 | COC(=O)[C@@H]1O[C@]12C(CO[Si](C)(C)C(C)(C)C)OC(n1ccc(=O)[nH]c1=O)C2O[Si](C)(C)C(C)(C)C (stereo partly drawn) | > 100 | 77.9 | 30.8 | > 100 | > 100 | 59 | > 100 | 72.7 | > 100 | > 100 | > 100 | 61.1 | 76.5
2 | CC(=O)C1(c2ccccc2)CCN(Cn2sc3nc(C)cc(C)c3c2=O)CC1 | 72.7 | > 100 | > 100 | > 100 | > 100 | 93.1 | 48 | > 100 | 57.3 | > 100 | > 100 | > 100 | 77.3
3 | Cc1cc(C)c2c(=O)cc(-c3ccc(Cl)cc3)[nH]c2n1 | > 100 | > 100 | > 100 | > 100 | > 71.4 | > 75.2 | > 100 | > 100 | > 65 | > 100 | > 100 | > 100 | > 100
4 | O=C(Sc1c(-c2ccccc2)c(=O)n(-c2ccccc2)c(=S)n1-c1ccccc1)c1ccc(Cl)cc1 | > 100 | > 100 | > 100 | > 100 | > 100 | > 100 | > 100 | > 100 | > 100 | > 100 | > 100 | > 100 | > 100
5 | COC(=O)/C=C\c1ccc2c(c1)CC1(C2)Cc2ccc(/C=C/C(=O)OC)cc2C1 (stereo not drawn) | > 31.6 | > 31.6 | > 31.6 | > 100 | > 31.6 | > 100 | > 31.6 | > 31.6 | > 100 | > 31.6 | > 31.6 | > 100 | > 31.6
6 | COC(=O)c1cc(C#N)[nH]c1-c1ccsc1 | > 100 | > 100 | > 100 | > 100 | > 100 | > 100 | > 100 | > 100 | > 100 | > 100 | > 100 | > 100 | > 100
7 | COC(=O)c1ccccc1C1CN=NC12Cc1c(C)cc(C)cc1C2=O (stereo not drawn) | > 100 | > 100 | > 100 | > 100 | > 100 | > 100 | > 100 | > 100 | > 100 | > 100 | > 100 | > 100 | > 100
8 | C=CCNC1=C2C[C@@H](C)C[C@@H](OC)[C@H](OC(=O)CN(C)C)[C@H](C)/C=C(\C)[C@@H](OC(N)=O)[C@H](OC)/C=C\C=C(/C)C(=O)NC(=CC1=O)C2=O | 0.284 | 0.274 | 13.8 | 26.9 | > 42.1 | 25.7 | 26 | 11.6 | 0.909 | > 59.3 | 20 | 2.72 | > 41.6
9 | CCOC(=O)c1ccc2c(c1)nc1n2C(c2c(F)cccc2F)SC1 (stereo not drawn) | > 100 | 37.7 | 43.4 | > 100 | > 100 | > 100 | > 100 | > 100 | > 100 | > 100 | > 100 | > 100 | > 100
10 | O=C1O/C(=C\c2ccc(O)c(Br)c2)C(c2ccc(O)cc2)=C1Cl | > 100 | > 100 | 59.7 | > 100 | > 100 | > 100 | > 100 | > 100 | > 100 | 41.1 | > 100 | > 100 | > 100
11 | CCCCCCCC/C=C\CCCCCCCCNc1ccn(C2OC(COP(=O)(O)OC3CC(n4cc(F)c(=O)[nH]c4=O)OC3CO)C(O)C2O)c(=O)n1 (stereo not drawn) | > 100 | > 100 | > 100 | > 100 | > 100 | > 100 | > 100 | > 95 | > 100 | 17.9 | > 100 | > 100 | 20.5
